According to US20110166149A1, “PTERIDINE DERIVATIVES FOR TREATING RESPIRATORY DISEASE” (TARGEGEN INC., priority 2008, published 2011):
Several values for one entry are separate records, joined by “and”; a condition that tells them apart may be missing. Equal values may be shown once. Read-outs that look alike come from different tables or passages of the source.

Experiments:
[1] = Lung exposure in mice, nose-only chamber nebulization (Example 3); format: in vivo, Balb/c mice; conditions: 30 min nebulization, immediately after
Procedure: A series of compositions for pulmonary delivery were prepared by making a 20% suspension of compound A in a 5% tyloxapol solution in water. Particle size reduction was achieved using a colloid mill (magicLAB®, MK module, for 6 hours @ 12,000 rpm, while maintaining a temperature below 50° C.). Samples at 4% compound A were prepared by dilution with DI water. A 0.4% compound A suspension in 0.1% tyloxapol solution, was made by dilution with SWFI (6.02 g of the 20% suspension was QS to 30.23 g with SWFI).
0.4% compound A suspension in 0.1% tyloxapol solution: 2.07 g of a 4% compound A suspension was diluted to 20 g with DI water.
0.04% compound A suspension in 0.01% tyloxapol solution: 2.03 g of a 0.4% compound A suspension was diluted to 20 g with DI water. 0.004% compound A suspension in 0.001% tyloxapol solution: 2.05 g of a 0.04% compound A suspension was diluted to 20 g with DI water.
Compositions were delivered via a nose-only chamber (CH Technologies) to Balb/c mice by nebulizing for 30 minutes the composition with a PARI LC plus at 3 LPM with a 5 LPM dilutor (of dry air), tissues, plasma and BALF (3 mL used of PBS) collected after sacrificing immediately after nebulization, and were analyzed by HPLC-MS.

[2] = Aerodynamic particle size of nebulized suspensions, 7 stage impactor (Example 1); format: physicochemical; conditions: nebulized suspension
Procedure: 6,7-bis(3-hydroxyphenyl)-pteridine-2,4-diamine (Compound A) was formulated as a 20% suspension in a 5% tyloxapol solution in water. Particle size reduction was achieved using a colloid mill (magicLAB®, MK module, for 6 hours @ 12,000 rpm, while maintaining a temperature below 50° C.). Samples at 4, 0.4, 0.04 and 0.004% of compound A were prepared by dilution with DI water.
Nebulizations of the suspensions were carried out using a Pari LC Plus @ 3 LPM, using an active diluter at 5 LPM in a CH technologies nose-only exposure chamber. Aerodynamic particle size was determined by a 7 stage impactor from Intox at 1 LPM. Each stage extracted with acetonitrile:water 1:1 with 0.05% TFA and analyzed by HPLC against an external standard.

[3] = tested on: ovalbumin (OVA) challenged mice; assay: Mouse airway resistance, methacholine challenge (Example 4); format: in vivo; conditions: aerosolized formulations, FIG. 4
Procedure: A series of compositions for pulmonary delivery were prepared by first preparing a 20% suspension of compound A in a 5% tyloxapol solution in water. Particle size reduction was achieved using a colloid mill (magicLAB®, MK module, for 6 hours @ 12,000 rpm, while maintaining a temperature below 50° C.). Samples at 4% compound A were prepared by dilution with DI water. A 0.4% compound A suspension in 0.1% tyloxapol solution was made by dilution with SWFI (6.02 g of the 20% suspension was QS to 30.23 g with SWFI) and the following suspensions were also prepared: • […] in 0.01% tyloxapol solution: 2.52 g of a 0.4% compound A suspension was diluted to 100 g with SWFI water. • 0.01% compound A suspension in 0.01% tyloxapol solution: 10 g of a 0.1% compound A suspension was diluted to 100 g with SWFI water. • 0.001% compound A suspension in 0.01% tyloxapol solution 3: 10 g of a 0.1% compound A suspension was diluted to 100 g with SWFI water. […] Airway resistance in the model is induced via a methacholine challenge. Airway resistance is both a diagnostic and a hallmark of respiratory diseases such as asthma and COPD and the reduction of airway resistance is considered a beneficial outcome.

[4] = Estimated lung exposure level calculated from respirable dose (Example 1); conditions: 30 minute exposure assumed, mouse
Procedure: Estimated lung exposure levels were calculated based on the following assumptions: respirable dose collected from 7 stage impactor; 30 minute exposure time; mouse minute volume of 23 mL/min; mouse weight of 25 g; mouse lung weight of 250 mg (1% of body weight).

[5] = Stability / precipitation of compound A solutions at pH ~3 (Examples 5, 6); format: physicochemical
Procedure: 36 mg of compound A was dissolved with the aid of 0.5 N HCl (QS to 1 g) under mixing and heat. 200 μL of this solution was mixed using a sonicator bath, if necessary with a separately prepared solution containing 1.8 mg of a 0.02% tyloxapol/2% PVP 90F and 34 μL of a 2 N NaOH, to give a final concentration of ˜3.3 mg/mL of compound A at a pH of ˜3. […] 200 μL of the above solution was mixed using a sonicator bath, if necessary with a solution containing 1.8 mg of a 0.02% tyloxapol/2% PVP 90F and 10 μL of a 2 N NaOH, to give a final concentration of ˜5 mg/mL of compound A at a pH of ˜3. This solution will start precipitating ˜20 min.

[6] = Particle size of nebulized solution, 7 stage cascade impactor (Example 5); format: physicochemical; conditions: nebulized solution ~3.3 mg/mL, pH ~3, tyloxapol/PVP 90F
Procedure: 36 mg of compound A was dissolved with the aid of 0.5 N HCl (QS to 1 g) under mixing and heat. 200 μL of this solution was mixed using a sonicator bath, if necessary with a separately prepared solution containing 1.8 mg of a 0.02% tyloxapol/2% PVP 90F and 34 μL of a 2 N NaOH, to give a final concentration of ˜3.3 mg/mL of compound A at a pH of ˜3.

Solubility of Compound A = format: physicochemical
[7] = formulation conc. 0.004%, individual animals 3A-3E
[8] = formulation conc. 0.04%, individual animals 2A-2E
[9] = formulation conc. 0.40%, individual animals 1A-1E

## Nc1nc(N)c2nc(-c3cccc(O)c3)c(-c3cccc(O)c3)nc2n1 [Compound A, 6,7-bis(3-hydroxyphenyl)-pteridine-2,4-diamine]
[1]; formulation conc. 0.004%, Mean
  Compound A concentration BALF: 22.9 ± 34.0 ng/mL
  Compound A concentration Lung: 0.12 ± 0.02 µg/g
  Compound A concentration Plasma: <LLOQ
[1]; [7]
  Compound A concentration BALF: 83.6 ng/mL and 10.0 ng/mL and 7.84 ng/mL and 7.82 ng/mL and 4.99 ng/mL
  Compound A concentration Lung: 0.14 μg/g and 0.12 μg/g and 0.10 μg/g (2×) and 0.13 μg/g
  Compound A concentration Plasma: <LLOQ
[1]; formulation conc. 0.04%, Mean
  Compound A concentration BALF: 71.6 ± 38.4 ng/mL
  Compound A concentration Lung: 1.48 ± 0.49 µg/g
[1]; [8]
  Compound A concentration BALF: 62.6 ng/mL and 93 ng/mL and 92.1 ng/mL and 102 ng/mL and 8.19 ng/mL
  Compound A concentration Lung: 2.3 µg/g and 1.0 µg/g and 1.5 µg/g and 1.4 µg/g and 1.3 µg/g
  Compound A concentration Plasma: <LLOQ (4×) and 6.37 ng/mL
[1]; formulation conc. 0.40%, Mean
  Compound A concentration BALF: 1870 ± 1902 ng/mL
  Compound A concentration Lung: 6.7 ± 1.1 µg/g
  Compound A concentration Plasma: 5.16 ± 2.39 ng/mL
[1]; [9]
  Compound A concentration BALF: 1370 ng/mL and 5240 ng/mL and 1200 ng/mL and 804 ng/mL and 737 ng/mL
  Compound A concentration Lung: 8.2 μg/g and 32.1(?) μg/g and 6.1 μg/g and 6.5 μg/g and 5.9 μg/g
  Compound A concentration Plasma: 2.51 ng/mL and 3.98 ng/mL and 8.46 ng/mL and 6.73 ng/mL and 4.1 ng/mL
[2]; 0.004% Compound A
  MMAD (GSD): 0.64 (2.35)
[2]; 0.04% Compound A
  MMAD (GSD): 0.69 (1.74)
[2]; 0.4% Compound A
  MMAD (GSD): 0.83 (1.87)
[2]; 4% Compound A, MMAD = mass median aerodynamic diameter, GSD = geometric standard deviation
  MMAD (GSD): 1.35 (1.98)
[3]
  airway resistance: reduced airway resistance
[4]; 0.004% Compound A suspension
  Estimated lung conc.: 0.1 µg/g
[4]; 0.04% Compound A suspension
  Estimated lung conc.: 1.4 µg/g
[4]; 0.4% Compound A suspension
  Estimated lung conc.: 11 µg/g
[4]; 4% Compound A suspension
  Estimated lung conc.: 75 µg/g
[5]; ~3.3 mg/mL, pH ~3, tyloxapol/PVP 90F (Example 5)
  solution stability: stable for more than an hour
[5]; ~5 mg/mL, pH ~3, tyloxapol/PVP 90F (Example 6)
  time to start of precipitation: ~20 min
[6]
  GSD: 2.1
  MMAD: ~1 μm
Solubility of Compound A; DMSO and selected aprotic solvents with high dielectric constants
  dissolution in organic solvents: readily dissolves
Solubility of Compound A; between pH of 3 and 9
  solubility: negligible solubility
Solubility of Compound A; water, aqueous buffer, pH below 2 and above 10, read-out: water solubility
  solubility: > 20 mg/mL
